molecular target: T1, IKKε (Homo sapiens, UniProt Q14164); assay: In-vitro IKKε kinase assay ([γ33]ATP filter-plate); assay type: biochemical; conditions: text bins; read-out: IC50 for inhibition of the kinase activity of IKKε
T1 construct: His-tag; made in house; host or cells: Sf9 insect cells
T1 sequence (Q14164 1-716): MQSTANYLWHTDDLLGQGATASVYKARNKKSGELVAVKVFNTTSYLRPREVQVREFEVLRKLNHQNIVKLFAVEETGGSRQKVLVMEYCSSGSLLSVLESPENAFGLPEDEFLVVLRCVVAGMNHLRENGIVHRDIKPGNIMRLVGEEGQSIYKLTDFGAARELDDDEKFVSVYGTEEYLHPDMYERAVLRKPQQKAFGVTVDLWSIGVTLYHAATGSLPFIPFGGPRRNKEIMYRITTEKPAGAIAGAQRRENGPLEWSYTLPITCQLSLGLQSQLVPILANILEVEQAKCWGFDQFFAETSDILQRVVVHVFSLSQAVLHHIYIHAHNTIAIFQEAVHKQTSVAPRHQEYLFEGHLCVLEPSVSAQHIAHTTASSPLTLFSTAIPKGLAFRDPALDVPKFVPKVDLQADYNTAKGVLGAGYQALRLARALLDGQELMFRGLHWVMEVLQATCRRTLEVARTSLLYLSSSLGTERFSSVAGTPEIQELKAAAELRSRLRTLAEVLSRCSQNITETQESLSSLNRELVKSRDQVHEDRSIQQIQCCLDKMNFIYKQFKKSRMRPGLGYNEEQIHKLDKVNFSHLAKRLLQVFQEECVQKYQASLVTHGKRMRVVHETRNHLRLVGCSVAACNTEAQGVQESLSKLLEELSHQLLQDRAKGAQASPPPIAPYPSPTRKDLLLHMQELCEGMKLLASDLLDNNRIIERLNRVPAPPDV
Procedure: IKKε enzyme was produced as a His-tag fusion in Sf9 cells and used at a final concentration of […]. TBK1 enzyme was produced as a His-tag fusion in Sf9 cells and used at a final concentration of 0.1 μg/ml. Kinase reactions were carried out in reaction buffer using myelin basic protein (Millipore, Ballerica, Mass.) or casein (Sigma, St. Louis, Mo.) as substrate at an ATP concentration equal to twice the Km,ATP value for each enzyme, corresponding to 32 μM ATP for IKKε and 60 μM ATP for TBK1, in the presence of 0.3 μCi [γ^33]ATP (PerkinElmer, Waltham, Mass.). Final enzyme concentrations were 0.1 or 0.015 μg/ml (IKKε) and 0.1 or 0.02 μg/ml (TBK1), representing “normal” and “sensitized” assay conditions respectively. Test compounds (or DMSO solvent as a control) were added prior to initiation of the reactions. Reactions were terminated after 30-45 minutes by adding 3% phosphoric acid. Terminated reactions were transferred to P-81 cellulose phosphate filterplates (Whatman, Inc., Piscataway, N.J.) and washed with 1% phosphoric acid on a vacuum apparatus. After air drying, scintillant (PerkinElmer, Waltham, Mass.) was added and the plates were read on a PerkinElmer TopCount NXT instrument. Counts were normalized to DMSO controls after background subtraction.

| Compound | IC50 [nM] |
| --- | --- |
| N#Cc1cc(-c2ccnc(Nc3ccc(N4CCOCC4)cc3)n2)ccc1OCC1CCN(C(=O)C2C[C@H]2F)CC1 (stereo partly drawn) [Example 108, 2-[(1-{[(2R)-2-fluorocyclopropyl]carbonyl}piperidin-4-yl)methoxy]-5-(2-{[4-(morpholin-4-yl)phenyl]amino}pyrimidin-4-yl)benzonitrile] | 50 to 500 |
| CC(=O)N1CC(COc2ccc(-c3ccnc(Nc4ccc(N5CCOCC5)cc4)n3)cc2C#N)C1 [Example 125, 2-[(1-acetylazetidin-3-yl)methoxy]-5-(2-{[4-(morpholin-4-yl)phenyl]amino}pyrimidin-4-yl)benzonitrile] | 50 to 500 |
| N#Cc1cc(-c2ccnc(Nc3ccc(N4CCOCC4)cc3)n2)ccc1OC1CN(C(=O)CO)C1 [Example 131, 2-{[1-(hydroxyacetyl)azetidin-3-yl]oxy}-5-(2-{[4-(morpholin-4-yl)phenyl]amino}pyrimidin-4-yl)benzonitrile] | 50 to 500 |
| N#Cc1cc(-c2ccnc(Nc3ccc(N4CCOCC4)cc3)n2)ccc1SC1CCCCC1 [Example 137, 2-(cyclohexylsulfanyl)-5-(2-{[4-(morpholin-4-yl)phenyl]amino}pyrimidin-4-yl)benzonitrile] | 50 to 500 |
| C[C@@H](O)C(=O)N1CCC(Oc2ccc(-c3ccnc(Nc4ccc(N5CCOCC5)cc4)n3)cc2C#N)C1 (stereo partly drawn) [Example 142, 2-({1-[(2R)-2-hydroxypropanoyl]pyrrolidin-3-yl}oxy)-5-(2-{[4-(morpholin-4-yl)phenyl]amino}pyrimidin-4-yl)benzonitrile] | 50 to 500 |
| COc1ccc(Nc2nccc(-c3cc(C#N)cc(OCc4ccccc4)c3)n2)cc1OC [Example 145, 3-(Benzyloxy)-5-{2-[(3,4-dimethoxyphenyl)amino]pyrimidin-4-yl}benzonitrile] | 50 to 500 |
| CC(=O)OC(C)C(=O)Nc1ccc(-c2ccnc(Nc3ccc(N4CCOCC4)cc3)n2)cc1C#N (centres unmarked) [Example 147, 1-{[2-cyano-4-(2-{[4-(morpholin-4-yl)phenyl]amino}pyrimidin-4-yl)phenyl]amino}-1-oxopropan-2-yl acetate] | 50 to 500 |
| N#Cc1cc(-c2ccnc(Nc3ccc(N4CCOCC4)cc3)n2)ccc1OC1CCN(C(=O)C2CC2)C1 (centres unmarked) [Example 151, 2-{[1-(cyclopropylcarbonyl)pyrrolidin-3-yl]oxy}-5-(2-{[4-(morpholin-4-yl)phenyl]amino}pyrimidin-4-yl)benzonitrile] | 50 to 500 |
| CC(C)C(=O)NCCOc1ccc(-c2ccnc(Nc3ccc(N4CCOCC4)cc3)n2)cc1C#N [Example 153, N-{2-[2-cyano-4-(2-{[4-(morpholin-4-yl)phenyl]amino}pyrimidin-4-yl)phenoxy]ethyl}-2-methylpropanamide] | 50 to 500 |
| CN(C)CC(=O)N1CCC(Oc2ccc(-c3ccnc(Nc4ccc(N5CCOCC5)cc4)n3)cc2C#N)CC1 [Example 160, 2-{[1-(N,N-dimethylglycyl)piperidin-4-yl]oxy}-5-(2-{[4-(morpholin-4-yl)phenyl]amino}pyrimidin-4-yl)benzonitrile] | 50 to 500 |
| COc1ccc(Nc2nccc(-c3ccc(OC(C)c4ccccc4)c(C#N)c3)n2)cc1OC (centres unmarked) [Example 163] | 50 to 500 |
| CN(C)C(=O)N1CCC(Oc2ccc(-c3ccnc(Nc4ccc(N5CCOCC5)cc4)n3)cc2C#N)CC1 [Example 166, 4-[2-Cyano-4-(2-{[4-(morpholin-4-yl)phenyl]amino}pyrimidin-4-yl)phenoxy]-N,N-dimethylpiperidine-1-carboxamide] | 50 to 500 |
| CC(C)COC(=O)Nc1ccc(-c2ccnc(Nc3ccc(N4CCOCC4)cc3)n2)cc1C#N [Example 180, 2-methylpropyl [2-cyano-4-(2-{[4-(morpholin-4-yl)phenyl]amino}pyrimidin-4-yl)phenyl]carbamate] | 50 to 500 |
| CC(=O)Nc1cccc(Nc2nccc(-c3ccc(OCc4ccccc4)c(C#N)c3)n2)c1 [Example 185, N-[3-({4-[4-(Benzyloxy)-3-cyanophenyl]pyrimidin-2-yl}amino)phenyl] acetamide] | 5 to 50 |

Other lines, results leading:

| IC50 [nM] | Compound |
| --- | --- |
| 5 to 50 | COc1ccc(Nc2nccc(-c3ccc(OCc4ccccc4)c(C#N)c3)n2)cc1OC [Example 106, 2-(Benzyloxy)-5-{2-[(3,4-dimethoxyphenyl)amino]pyrimidin-4-yl}benzonitrile] |
| 5 to 50 | N#Cc1cc(-c2ccnc(Nc3ccc(N4CCOCC4)cc3)n2)ccc1OC1CCN(C(=O)[C@@H](O)C(F)(F)F)CC1 [Example 113, 5-(2-{[4-(morpholin-4-yl)phenyl]amino}pyrimidin-4-yl)-2-({1-[(2R)-3,3,3-trifluoro-2-hydroxypropanoyl]piperidin-4-yl}oxy)benzonitrile] |
| 5 to 50 | N#Cc1cc(-c2ccnc(Nc3ccc(N4CCOCC4)c(C(F)(F)F)c3)n2)ccc1OC1CCOCC1 [Example 120, 5-(2-{[4-(morpholin-4-yl)-3-(trifluoromethyl)phenyl]amino}pyrimidin-4-yl)-2-(tetrahydro-2H-pyran-4-yloxy)benzonitrile] |
| 5 to 50 | N#Cc1cc(-c2ccnc(Nc3ccc(N4CCOCC4)cc3)n2)ccc1OC1CCN(C(=O)Cn2ccnc2)CC1 [Example 139, 2-{[1-(1H-imidazol-1-ylacetyl)piperidin-4-yl]oxy}-5-(2-{[4-(morpholin-4-yl)phenyl]amino}pyrimidin-4-yl)benzonitrile] |
| 5 to 50 | C[C@@H](O)C(=O)N1CCC(Oc2ccc(-c3ccnc(Nc4ccc(N5CCOCC5)cc4)n3)cc2C#N)CC1 [Example 140, 2-({1-[(2R)-2-hydroxypropanoyl]piperidin-4-yl}oxy)-5-(2-{[4-(morpholin-4-yl)phenyl]amino}pyrimidin-4-yl)benzonitrile] |
| 5 to 50 | N#Cc1cc(-c2ccnc(Nc3cccc(S(N)(=O)=O)c3)n2)ccc1OC1CCOCC1 [Example 146, 3-({4-[3-cyano-4-(tetrahydro-2H-pyran-4-yloxy)phenyl]pyrimidin-2-yl}amino) benzenesulfonamide] |
| 5 to 50 | CC(=O)N1CCC(CCOc2ccc(-c3ccnc(Nc4ccc(N5CCOCC5)cc4)n3)cc2C#N)CC1 [Example 156, 2-[2-(1-acetylpiperidin-4-yl)ethoxy]-5-(2-{[4-(morpholin-4-yl)phenyl}amino}pyrimidin-4-yl)benzonitrile] |
| 5 to 50 | CC(=O)N1CCCC(COc2ccc(-c3ccnc(Nc4ccc(N5CCOCC5)cc4)n3)cc2C#N)C1 (centres unmarked) [Example 161] |
| 5 to 50 | CS(=O)(=O)N(c1ccc(-c2ccnc(Nc3ccc(N4CCOCC4)cc3)n2)cc1C#N)S(C)(=O)=O [Example 167, N-[2-Cyano-4-(2-{[4-(morpholin-4-yl)phenyl]amino}pyrimidin-4-yl)phenyl]-N-(methylsulfonyl) methanesulfonamide] |
| 5 to 50 | COc1ccc(-c2ccnc(Nc3cc(CNCCO)c(OC)c(OC)c3)n2)cc1C#N [Example 173, 5-{2-[(3-{[(2-Hydroxyethyl)amino]methyl}-4,5-dimethoxyphenyl)amino]pyrimidin-4-yl}-2-methoxybenzonitrile] |
| 5 to 50 | COc1ccc(-c2ccnc(Nc3cc(CN(C)C)c(OC)c(OC)c3)n2)cc1C#N [Example 174, 5-[2-({3-[(Dimethylamino)methyl]-4,5-dimethoxyphenyl}amino)pyrimidin-4-yl]-2-methoxybenzonitrile] |
| 5 to 50 | COc1ccc(Nc2nccc(-c3ccc(Cl)c(C#N)c3)n2)cc1OC [Example 182, 2-Chloro-5-{2-[(3,4-dimethoxyphenyl)amino]pyrimidin-4-yl}benzonitrile] |

Source: US20150352108A1, “AMINO-PYRIMIDINE COMPOUNDS AS INHIBITORS OF TBK1 AND/OR IKK EPSILON” (Alzheimer's Institute of America, priority 2009, published 2015)
